Source: ChEMBL document CHEMBL1909046, “DrugMatrix in vitro pharmacology data”
pIC50, pKi: −log10 of the molar value.

Tests used:
[1] = DRUGMATRIX: Sodium/nucleoside co-transporter radioligand binding (ligand: nitrobenzylthioinosine); type: cell membranes, Cavia porcellus, Dunkin-Hartley, Cerebral cortex, Membrane; conditions: Not Active = under 50% inhibition at 10 µM
[2] = molecular target: T1, Vasoactive intestinal polypeptide receptor 1 (Homo sapiens, UniProt P32241); type: cell membranes, Membrane; conditions: ht-29; note: in other assays of this panel Not Active means under 50% inhibition at 10 µM
T1 sequence (P32241 whole entry): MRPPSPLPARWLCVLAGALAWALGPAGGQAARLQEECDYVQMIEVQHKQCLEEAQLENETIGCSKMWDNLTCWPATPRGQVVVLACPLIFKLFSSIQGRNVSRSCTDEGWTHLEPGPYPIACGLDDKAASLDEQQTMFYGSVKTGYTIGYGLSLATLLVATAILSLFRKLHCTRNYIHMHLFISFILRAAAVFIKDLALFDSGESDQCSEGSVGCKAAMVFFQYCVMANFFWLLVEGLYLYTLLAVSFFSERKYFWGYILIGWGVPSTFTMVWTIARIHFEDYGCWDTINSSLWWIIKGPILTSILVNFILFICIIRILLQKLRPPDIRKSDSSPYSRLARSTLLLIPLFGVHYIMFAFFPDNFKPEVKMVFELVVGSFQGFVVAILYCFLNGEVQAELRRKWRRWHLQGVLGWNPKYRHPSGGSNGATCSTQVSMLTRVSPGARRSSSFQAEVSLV

Histamine H2 receptor = Histamine H2 receptor (Homo sapiens, UniProt P25021); type: cell membranes, CHO-K1, Membrane; conditions: for IC50 / Ki: cho-k1; for all read-outs here: in other assays of this panel Not Active means under 50% inhibition at 10 µM
Chain of Histamine H2 receptor (P25021 whole entry): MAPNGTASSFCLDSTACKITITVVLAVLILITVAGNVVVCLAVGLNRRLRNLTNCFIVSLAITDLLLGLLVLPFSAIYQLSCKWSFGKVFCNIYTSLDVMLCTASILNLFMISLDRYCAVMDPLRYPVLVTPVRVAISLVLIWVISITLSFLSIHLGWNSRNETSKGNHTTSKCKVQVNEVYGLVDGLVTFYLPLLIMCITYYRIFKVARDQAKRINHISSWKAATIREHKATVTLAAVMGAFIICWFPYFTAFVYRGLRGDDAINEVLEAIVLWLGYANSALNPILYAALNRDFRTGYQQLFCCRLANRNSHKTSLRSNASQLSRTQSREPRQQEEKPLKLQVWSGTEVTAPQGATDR

[3] = DRUGMATRIX: Potassium Channel [KATP] radioligand binding (ligand: [3H] Glyburide); type: cell membranes, Membrane; conditions: hit-t15; Not Active = under 50% inhibition at 10 µM
[4] = molecular target: Tyrosine-protein kinase Fyn (Homo sapiens, UniProt P06241); assay: biochemical; type: cell-based, Insect cells; conditions: insect cells;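 note: enzymatic inhibition of Fyn kinase activity measured with Poly(Glu:Tyr) as the phosphorylation substrate; in other assays of this panel Not Active means under 50% inhibition at 10 µM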
Chain of Tyrosine-protein kinase Fyn (P06241 whole entry): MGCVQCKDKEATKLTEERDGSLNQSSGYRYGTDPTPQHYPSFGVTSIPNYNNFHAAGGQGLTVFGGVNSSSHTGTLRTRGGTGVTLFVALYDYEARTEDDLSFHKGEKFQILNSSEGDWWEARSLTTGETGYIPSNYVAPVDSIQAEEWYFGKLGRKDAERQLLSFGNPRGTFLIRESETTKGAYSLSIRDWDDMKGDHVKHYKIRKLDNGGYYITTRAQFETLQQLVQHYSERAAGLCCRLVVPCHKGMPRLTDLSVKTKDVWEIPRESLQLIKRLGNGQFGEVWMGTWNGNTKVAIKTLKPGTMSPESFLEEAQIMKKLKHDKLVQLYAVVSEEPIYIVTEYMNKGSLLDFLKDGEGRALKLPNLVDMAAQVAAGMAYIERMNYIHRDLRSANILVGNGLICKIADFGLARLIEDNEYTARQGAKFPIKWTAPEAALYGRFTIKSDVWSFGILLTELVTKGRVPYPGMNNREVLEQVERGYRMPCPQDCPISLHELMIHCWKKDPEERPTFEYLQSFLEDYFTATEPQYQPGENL

Cytochrome P450 1A2 = molecular target: T2, Cytochrome P450 1A2 (Homo sapiens, UniProt P05177); conditions: bti-tn-5b1-4; note: in other assays of this panel Not Active means under 50% inhibition at 10 µM
T2 sequence (P05177 whole entry): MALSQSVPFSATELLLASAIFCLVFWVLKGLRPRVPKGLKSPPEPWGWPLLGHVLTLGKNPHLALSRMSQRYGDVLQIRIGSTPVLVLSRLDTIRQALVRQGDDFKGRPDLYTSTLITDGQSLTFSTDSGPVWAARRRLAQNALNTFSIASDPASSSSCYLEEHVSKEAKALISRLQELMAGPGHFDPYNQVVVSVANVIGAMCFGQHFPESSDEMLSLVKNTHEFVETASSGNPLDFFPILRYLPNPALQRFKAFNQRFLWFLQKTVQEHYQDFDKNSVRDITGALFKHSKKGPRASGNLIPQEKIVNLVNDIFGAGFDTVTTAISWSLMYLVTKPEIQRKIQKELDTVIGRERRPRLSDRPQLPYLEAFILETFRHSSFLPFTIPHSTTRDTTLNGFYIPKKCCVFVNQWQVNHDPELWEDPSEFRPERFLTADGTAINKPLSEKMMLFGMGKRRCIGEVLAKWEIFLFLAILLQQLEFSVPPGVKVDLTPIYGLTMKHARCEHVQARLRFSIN

Estrogen receptor = molecular target: T3, Estrogen receptor (Homo sapiens, UniProt P03372); conditions: sf9; note: in other assays of this panel Not Active means under 50% inhibition at 10 µM
T3 sequence (P03372 whole entry): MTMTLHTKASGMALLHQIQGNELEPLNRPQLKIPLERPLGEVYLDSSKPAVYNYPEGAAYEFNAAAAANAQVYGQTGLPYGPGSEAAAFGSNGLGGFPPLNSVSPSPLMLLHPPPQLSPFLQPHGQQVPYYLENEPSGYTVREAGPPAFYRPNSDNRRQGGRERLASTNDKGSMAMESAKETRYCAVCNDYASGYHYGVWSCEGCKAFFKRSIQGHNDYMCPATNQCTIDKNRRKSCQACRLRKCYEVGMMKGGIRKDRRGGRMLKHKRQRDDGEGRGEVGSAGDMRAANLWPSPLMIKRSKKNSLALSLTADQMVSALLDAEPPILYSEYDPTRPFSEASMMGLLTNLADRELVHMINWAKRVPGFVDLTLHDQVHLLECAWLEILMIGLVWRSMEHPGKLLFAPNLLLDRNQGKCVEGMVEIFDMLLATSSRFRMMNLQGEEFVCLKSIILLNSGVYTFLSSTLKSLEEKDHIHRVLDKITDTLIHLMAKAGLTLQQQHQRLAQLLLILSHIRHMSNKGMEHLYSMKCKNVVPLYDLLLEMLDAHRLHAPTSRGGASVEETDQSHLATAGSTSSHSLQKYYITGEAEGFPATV

| Molecule | IC50 [1] | Ki [1] | IC50 [2] | IC50 (Histamine H2 receptor) | IC50 [3] | Ki [3] | IC50 [4] | IC50 (Cytochrome P450 1A2) | Ki (Cytochrome P450 1A2) | IC50 (Estrogen receptor) | Ki [2] | Ki (Histamine H2 receptor) | Ki [4] | Ki (Estrogen receptor) | pIC50 (Histamine H2 receptor; read-out: IC50) | pKi (Histamine H2 receptor; read-out: Ki) |
| --- | --- | --- | --- | --- | --- | --- | --- | --- | --- | --- | --- | --- | --- | --- | --- | --- |
| Cc1c(N)nc([C@H](CC(N)=O)NC[C@H](N)C(N)=O)nc1C(=O)N[C@H](C(=O)N[C@H](C)[C@@H](O)[C@H](C)C(=O)N[C@H](C(=O)NCCc1nc(-c2nc(C(=O)NCCC[S+](C)C)cs2)cs1)[C@@H](C)O)[C@@H](O[C@@H]1O[C@@H](CO)[C@@H](O)[C@H](O)[C@@H]1O[C@H]1O[C@H](CO)[C@@H](O)[C@H](OC(N)=O)[C@@H]1O)c1c[nH]cn1.[Br-] [BLEOMYCIN A2] | Not Active | Not Active | Not Active | Not Active | Not Active | Not Active | Not Active | Not Active | Not Active | Not Active | – | – | – | – | – | – |
| CN(Cc1cc(Br)cc(Br)c1N)C1CCCCC1 [BROMHEXINE] | Not Active | Not Active | Not Active | Not Active | Not Active | Not Active | Not Active | Not Active | Not Active | Not Active | – | – | – | – | – | – |
| COPPER(II) OXIDE | Not Active | Not Active | Not Active | Not Active | Not Active | Not Active | Not Active | Not Active | Not Active | Not Active | Not Active | Not Active | Not Active | Not Active | – | – |
| c1ccc2sc(SSc3nc4ccccc4s3)nc2c1 [BENZOTHIAZYL DISULFIDE] | Not Active | Not Active | Not Active | Not Active | Not Active | Not Active | Not Active | Not Active | Not Active | Not Active | – | – | – | – | – | – |
| Cc1cc(C(C)(C)C)c(O)c(C)c1CC1=NCCN1 [OXYMETAZOLINE] | Not Active | Not Active | Not Active | Not Active | Not Active | Not Active | Not Active | Not Active | Not Active | Not Active | – | – | – | – | – | – |
| CCO [ALCOHOL] | Not Active | Not Active | Not Active | Not Active | Not Active | Not Active | Not Active | Not Active | Not Active | Not Active | – | – | – | – | – | – |
| Nc1nc(N)c2nc(CNc3ccc(C(=O)N[C@@H](CCC(=O)O)C(=O)O)cc3)cnc2n1 [AMINOPTERIN] | Not Active | Not Active | Not Active | Not Active | Not Active | Not Active | Not Active | Not Active | Not Active | Not Active | – | – | – | – | – | – |
| CC(C)Cn1cnc2c(N)nc3ccccc3c21 [IMIQUIMOD] | Not Active | Not Active | Not Active | – | Not Active | Not Active | Not Active | Not Active | Not Active | Not Active | – | – | – | – | 5.82 | 5.83 |
| C[N+](C)(C)CCOP(=O)([O-])OC[C@H](O)CO | Not Active | Not Active | Not Active | Not Active | Not Active | Not Active | Not Active | Not Active | Not Active | Not Active | – | – | – | – | – | – |
| CARBOXYMETHYLCELLULOSE | Not Active | Not Active | Not Active | Not Active | Not Active | Not Active | Not Active | Not Active | Not Active | Not Active | Not Active | Not Active | Not Active | Not Active | – | – |
| O=C(O)COC(=O)Cc1ccccc1Nc1c(Cl)cccc1Cl [ACECLOFENAC] | Not Active | Not Active | Not Active | Not Active | Not Active | Not Active | Not Active | Not Active | Not Active | Not Active | – | – | – | – | – | – |
